Measured values as given in PubChem BioAssay (NCI).
“And” between values parts separate entries of the source, which are not always exact repeats. Identical values can stand only once.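 Five concentrations, 48 hours, 96-well plates. Abbreviation: GI50, concentration required for 50% inhibition of growth. TGI: total growth inhibition.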

Legend:
Test in all cases: DTP human tumour cell line panel, 48 h
T-47D breast = system: T-47D breast
BT-549 breast = system: BT-549 breast
NCI-H460 lung = system: NCI-H460 lung
HCT-116 colon = system: HCT-116 colon
A549 NSCLC = system: A549 NSCLC
HOP-92 NSCLC = system: HOP-92 NSCLC
SNB-19 CNS = system: SNB-19 CNS
RPMI-8226 leukemia = system: RPMI-8226 leukemia
M19-MEL melanoma = system: M19-MEL melanoma
SNB-78 CNS = system: SNB-78 CNS

c1ccc2cc(Cn3cc[n+](Cc4ccc5ccccc5c4)c3)ccc2c1
GI50 (T-47D breast): 0.385 µM | TGI (T-47D breast): 5.24 µM | GI50 (BT-549 breast): 1.18 µM | TGI (BT-549 breast): 3.15 µM | GI50 (NCI-H460 lung): 1.27 µM | TGI (NCI-H460 lung): 10.4 µM | GI50 (HCT-116 colon): 1.97 µM | TGI (HCT-116 colon): 12.3 µM | GI50 (A549 NSCLC): 7.97 µM | TGI (A549 NSCLC): 22.9 µM | GI50 (HOP-92 NSCLC): 0.16 µM | TGI (HOP-92 NSCLC): 1.39 µM | GI50 (SNB-19 CNS): 0.979 µM | TGI (SNB-19 CNS): 6.97 µM | GI50 (RPMI-8226 leukemia): 0.348 µM | TGI (RPMI-8226 leukemia): 1.97 µM

S=c1nc(C(c2ccccc2)c2ccccc2)[nH][nH]1
TGI (NCI-H460 lung): > 100 µM | TGI (HCT-116 colon): > 100 µM | TGI (A549 NSCLC): > 100 µM | TGI (M19-MEL melanoma): > 100 µM | TGI (SNB-19 CNS): > 100 µM

C[C@]12CC[C@@H]3c4ccc(O)cc4CC[C@H]3[C@@H]1CC[C@@H]2NS(=O)(=O)c1cccc(Cl)c1
GI50 (T-47D breast): 3.49 µM | TGI (T-47D breast): 11.3 µM | GI50 (BT-549 breast): 2.15 µM | TGI (BT-549 breast): 5.25 µM | GI50 (NCI-H460 lung): 2.24 µM | TGI (NCI-H460 lung): 5.02 µM | GI50 (HCT-116 colon): 1.68 µM | TGI (HCT-116 colon): 3.11 µM | GI50 (A549 NSCLC): 3.22 µM | TGI (A549 NSCLC): 12.7 µM | GI50 (HOP-92 NSCLC): 2.08 µM | TGI (HOP-92 NSCLC): 5.69 µM | GI50 (SNB-19 CNS): 3.87 µM | TGI (SNB-19 CNS): 14.4 µM | GI50 (RPMI-8226 leukemia): 2.97 µM | TGI (RPMI-8226 leukemia): 11.3 µM

COc1cccc(Sc2ccc([N+](=O)[O-])c3no[n+]([O-])c23)c1
GI50 (T-47D breast): 3.36 µM | TGI (T-47D breast): 14.4 µM | GI50 (BT-549 breast): 8.06 µM | TGI (BT-549 breast): 22.1 µM | GI50 (NCI-H460 lung): 18.7 µM | TGI (NCI-H460 lung): 40.8 µM | GI50 (HCT-116 colon): 3.7 µM | TGI (HCT-116 colon): 14.4 µM | GI50 (A549 NSCLC): 36.1 µM | TGI (A549 NSCLC): > 100 µM | GI50 (HOP-92 NSCLC): 15.5 µM | TGI (HOP-92 NSCLC): 32.7 µM | GI50 (SNB-19 CNS): 35 µM | TGI (SNB-19 CNS): > 88.3 µM | GI50 (RPMI-8226 leukemia): 3.67 µM | TGI (RPMI-8226 leukemia): 21 µM

O=C1C=C2C=CC3CC2(O1)C1CCCCN31 (centres undefined)
GI50 (T-47D breast): 22.3 µM and 14.1 µM and 53.4 µM | TGI (T-47D breast): 71.6 µM and 36.2 µM and > 100 µM | GI50 (BT-549 breast): 13.8 µM and 10.8 µM and 37 µM | TGI (BT-549 breast): 51.3 µM and 30.3 µM and > 100 µM | GI50 (NCI-H460 lung): 22.1 µM and 15.1 µM and 31.7 µM | TGI (NCI-H460 lung): 96.3 µM and 67.1 µM and > 100 µM | GI50 (HCT-116 colon): 14.2 µM and 12.5 µM and 36.5 µM | TGI (HCT-116 colon): 30.3 µM and 26.6 µM and > 100 µM | GI50 (A549 NSCLC): 31.8 µM and 22.9 µM and 64.4 µM | TGI (A549 NSCLC): > 100 µM and 63.4 µM | TGI (HOP-92 NSCLC): 65.8 µM and 48.3 µM and 66 µM | TGI (SNB-19 CNS): > 100 µM and 55.5 µM | GI50 (RPMI-8226 leukemia): 7.45 µM and 15.1 µM and 29.3 µM | TGI (RPMI-8226 leukemia): 58.9 µM and 45.7 µM and > 100 µM

Cc1c(N)nc([C@H](CC(N)=O)NC[C@H](N)C(N)=O)nc1C(=O)N[C@H](C(=O)N[C@H](C)[C@@H](O)CC(=O)N[C@H](C(=O)NC(O[C@@H]1O[C@@H](C)[C@@H](N)[C@@H](O)[C@H]1O)C(O)c1nc(-c2nc(C(=O)NCCCCN)cs2)cs1)[C@@H](C)O)[C@@H](O[C@@H]1O[C@@H](CO)[C@@H](O)[C@H](O)[C@@H]1O[C@H]1O[C@H](CO)[C@@H](O)[C@H](OC(N)=O)[C@@H]1O)c1c[nH]cn1 (some centres undefined)
TGI (T-47D breast): > 50 µM | TGI (BT-549 breast): > 50 µM | TGI (NCI-H460 lung): > 50 µM | TGI (HCT-116 colon): > 50 µM | TGI (A549 NSCLC): > 50 µM | TGI (HOP-92 NSCLC): > 50 µM | TGI (SNB-19 CNS): > 50 µM | TGI (RPMI-8226 leukemia): > 50 µM

CC/C=C\C[C@H](O)C/C=C1/C(=O)C=C[C@@H]1C/C=C\CCCC(=O)OC(C)C
GI50 (T-47D breast): 1.37 µM | TGI (T-47D breast): 7 µM | GI50 (BT-549 breast): 1.25 µM | TGI (BT-549 breast): 3.51 µM | GI50 (NCI-H460 lung): 1.68 µM | TGI (NCI-H460 lung): 3.97 µM | GI50 (HCT-116 colon): 0.245 µM | TGI (HCT-116 colon): 0.64 µM | GI50 (A549 NSCLC): 2.48 µM | TGI (A549 NSCLC): 5.88 µM | GI50 (HOP-92 NSCLC): 2.25 µM | TGI (HOP-92 NSCLC): 4.88 µM | GI50 (SNB-19 CNS): 3.3 µM | TGI (SNB-19 CNS): 12.8 µM | GI50 (RPMI-8226 leukemia): 0.371 µM | TGI (RPMI-8226 leukemia): 0.939 µM

COC1=CC(=O)C2C(C1=O)[C@@H]1c3ccccc3OC(C)(C)[C@H]21 (some centres undefined)
TGI (NCI-H460 lung): > 100 µM | TGI (SNB-78 CNS): 41.5 µM | TGI (HCT-116 colon): 29.7 µM | TGI (A549 NSCLC): > 100 µM | TGI (M19-MEL melanoma): 34.5 µM | TGI (HOP-92 NSCLC): 35.4 µM | TGI (SNB-19 CNS): 97.7 µM | TGI (RPMI-8226 leukemia): 72.2 µM
